Laboratory results taken from ChEMBL document CHEMBL5360600, “Optimization of 1,2,4-Triazole-Based p97 Inhibitors for the Treatment of Cancer” (ACS Med Chem Lett, 2023).
≈ marks a conversion by molar mass, not a printed value. Calls of active or inactive are those of the source. The rule behind the calls is not given here.

Assays:
[1] = Metabolic stability in mouse liver microsome assessed as half life at 1 uM incubated upto 45 mins in presence of NADPH-regenerating system by LC-MS analysis; type: ADME; conditions: liver microsomes
[2] = biological target: T1, Transitional endoplasmic reticulum ATPase (Homo sapiens, UniProt P55072); assay: Inhibition of p97 (unknown origin) ATPase activity by Biomol Green Reagent based microplate reader analysis
Target sequence in this assay (P55072 whole entry): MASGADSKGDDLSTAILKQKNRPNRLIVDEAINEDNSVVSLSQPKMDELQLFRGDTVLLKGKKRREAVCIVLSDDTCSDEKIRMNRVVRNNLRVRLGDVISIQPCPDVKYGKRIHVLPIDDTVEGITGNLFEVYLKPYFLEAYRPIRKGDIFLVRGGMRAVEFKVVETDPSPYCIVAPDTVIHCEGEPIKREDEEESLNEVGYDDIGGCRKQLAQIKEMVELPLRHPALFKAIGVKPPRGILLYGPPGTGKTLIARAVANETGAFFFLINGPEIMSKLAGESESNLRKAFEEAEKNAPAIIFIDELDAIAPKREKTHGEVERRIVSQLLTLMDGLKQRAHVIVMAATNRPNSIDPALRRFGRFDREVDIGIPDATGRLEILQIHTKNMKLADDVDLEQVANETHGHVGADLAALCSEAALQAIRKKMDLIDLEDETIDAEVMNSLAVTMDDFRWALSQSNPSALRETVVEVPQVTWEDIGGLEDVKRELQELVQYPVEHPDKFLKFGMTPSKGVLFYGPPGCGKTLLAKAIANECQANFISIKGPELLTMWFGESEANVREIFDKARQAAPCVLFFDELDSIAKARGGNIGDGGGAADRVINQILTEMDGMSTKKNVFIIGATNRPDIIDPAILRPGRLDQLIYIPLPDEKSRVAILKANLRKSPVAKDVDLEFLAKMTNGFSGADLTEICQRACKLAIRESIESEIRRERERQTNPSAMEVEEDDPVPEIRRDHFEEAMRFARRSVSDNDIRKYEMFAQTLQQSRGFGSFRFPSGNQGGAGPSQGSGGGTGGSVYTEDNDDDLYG

HCT-116 = assay: Cytotoxicity against human HCT-116 cells assessed as reduction in cell viability incubated for 48 hrs by celltiter glo-luminescent assay; type: functional, cell-based; conditions: HCT-116, 48 h
[3] = biological target: T1, Transitional endoplasmic reticulum ATPase; assay: Inhibition of p97 in human HeLa cells expressing UbG76V-GFP/ODD-Luc assessed as accumulation of Ub-GFP incubated for 6 hrs by confocal microscopic analysis; type: cell-based
Target sequence in this assay (P55072 whole entry): as above

[4] = Solubility of compound in PBS incubated for 30 minutes by clear-bottomed UV analysis; type: physicochemical
[5] = Solubility of compound at pH 7.4 in PBS by UV/visible spectrophotometer analysis; type: physicochemical
[6] = biological target: T1, Transitional endoplasmic reticulum ATPase; assay: Inhibition of p97 in human HCT-116 cells assessed as increase in Ub-K48 level at 100 nM incubated for 6 hrs by quantitative sandwich immunoassay method relative to control; type: cell-based
Target sequence in this assay (P55072 2-806 limits assumed): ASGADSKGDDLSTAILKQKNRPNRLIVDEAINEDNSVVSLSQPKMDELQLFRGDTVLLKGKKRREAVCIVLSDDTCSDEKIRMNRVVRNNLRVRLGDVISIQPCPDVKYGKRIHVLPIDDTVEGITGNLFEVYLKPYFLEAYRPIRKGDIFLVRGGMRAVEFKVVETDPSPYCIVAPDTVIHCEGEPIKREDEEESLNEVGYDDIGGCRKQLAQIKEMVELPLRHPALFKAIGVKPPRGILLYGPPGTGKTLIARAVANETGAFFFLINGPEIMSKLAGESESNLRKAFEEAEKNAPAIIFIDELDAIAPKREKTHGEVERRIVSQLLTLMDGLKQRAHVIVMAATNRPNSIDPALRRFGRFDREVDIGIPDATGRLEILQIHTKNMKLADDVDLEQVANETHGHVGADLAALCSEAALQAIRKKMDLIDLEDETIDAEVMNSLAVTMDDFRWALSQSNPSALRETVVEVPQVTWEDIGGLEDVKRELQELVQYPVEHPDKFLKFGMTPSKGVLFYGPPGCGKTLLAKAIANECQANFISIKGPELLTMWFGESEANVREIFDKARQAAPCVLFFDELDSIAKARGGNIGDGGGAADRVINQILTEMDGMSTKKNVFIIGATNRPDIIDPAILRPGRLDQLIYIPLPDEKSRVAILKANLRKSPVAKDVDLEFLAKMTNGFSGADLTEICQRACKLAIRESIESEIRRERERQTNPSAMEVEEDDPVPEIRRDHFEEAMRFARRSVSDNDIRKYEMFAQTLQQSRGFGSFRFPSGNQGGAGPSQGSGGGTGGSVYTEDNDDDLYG

[7] = Clearance in CD-1 mouse at 5 mg/kg, iv incubated upto 24 hrs by LC-MS/MS analysis; type: ADME, organism-based; conditions: in vivo
[8] = Cmax in CD-1 mouse at 50 mg/kg, po incubated upto 24 hrs by LC-MS/MS analysis; type: ADME, organism-based; design: dose 50 mg/kg, time < 24 hrs, route po; conditions: in vivo
[9] = Cmax in CD-1 mouse at 50 mg/kg, ip incubated upto 24 hrs by LC-MS/MS analysis; type: ADME, organism-based; design: time < 24 hrs, dose 50 mg/kg, route ip; conditions: in vivo
[10] = biological target: T1, Transitional endoplasmic reticulum ATPase; assay: Inhibition of p97 in human HCT-116 cells assessed as increase in caspase-3 level at 1 uM incubated for 24 hrs by quantitative sandwich immunoassay method relative to control; type: cell-based
Target sequence in this assay (P55072 2-806 limits assumed): as above

[11] = AUClast in CD-1 mouse at 5 mg/kg, iv incubated upto 24 hrs by LC-MS/MS analysis; type: ADME, organism-based; design: dose 5 mg/kg, time < 24 hrs, route iv; conditions: in vivo
[12] = biological target: T1, Transitional endoplasmic reticulum ATPase; assay: Inhibition of p97 in human HCT-116 cells assessed as increase in caspase-3 level at 0.04 to 6 uM pretreated for 2 hrs followed by washout and measured after 6 to 24 hrs by quantitative sandwich immunoassay method; type: cell-based; conditions: dose 0.04-6 µM
Target sequence in this assay (P55072 2-806 limits assumed): as above

[13] = Volume of distribution at steady state in CD-1 mouse at 5 mg/kg, iv incubated upto 24 hrs by LC-MS/MS analysis; type: ADME, organism-based; conditions: in vivo, read-out: Vdss
[14] = AUClast in CD-1 mouse at 50 mg/kg, ip incubated upto 24 hrs by LC-MS/MS analysis; type: ADME, organism-based; design: time < 24 hrs, dose 50 mg/kg, route ip; conditions: in vivo
[15] = Half life in CD-1 mouse at 50 mg/kg, po incubated upto 24 hrs by LC-MS/MS analysis; type: ADME, organism-based; conditions: in vivo
[16] = Half life in CD-1 mouse at 5 mg/kg, iv incubated upto 24 hrs by LC-MS/MS analysis; type: ADME, organism-based; conditions: in vivo
[17] = AUClast in CD-1 mouse at 50 mg/kg, po incubated upto 24 hrs by LC-MS/MS analysis; type: ADME, organism-based; design: time < 24 hrs, dose 50 mg/kg, route po; conditions: in vivo
[18] = Oral bioavailability in CD-1 mouse at 50 mg/kg incubated upto 24 hrs by LC-MS/MS analysis; type: ADME, organism-based; conditions: in vivo
[19] = Half life in CD-1 mouse at 50 mg/kg, ip incubated upto 24 hrs by LC-MS/MS analysis; type: ADME, organism-based; conditions: in vivo

Structure (SMILES) | half-life at […], 1 µM [1] [min] | IC50 [2] [nM] | IC50 (HCT-116) [nM] | EC50 [3] [nM] | solubility at 0.5 h [4] [µM] | other results
Cc1cc(OCc2nnc(SC3C=CCCC3)n2-c2cccnc2)ccc1C#CCOC(=O)NCCN1CCN(C)CC1 (centres undefined) | 8 | 21 | 2800 | 890 | – | –
Cc1cc(OCc2nnc(SC3C=CCCC3)n2-c2cccnc2)ccc1C#CCOC(=O)N1CCN(C)CC1 (centres undefined) | < 10 | 29 | 2400 | 1800 | – | –
Cc1cc(OCc2nnc(SC3CCC(F)(F)CC3)n2-c2cccnc2)ccc1-c1ccc(S(C)(=O)=O)cc1 | < 10 | 300 | – | > 40000 | 110 (≈ 62.8 µg/mL) | –
Cc1cc(OCc2nnc(SC3CCCC3)n2-c2cccnc2)ccc1-c1ccc(S(C)(=O)=O)cc1 | 9 | – | – | – | – | –
Cc1cc(OCc2nnc(SC3CCOCC3)n2-c2cccnc2)ccc1-c1ccc(S(C)(=O)=O)cc1 | < 10 | 460 | – | 47000 | 150 (≈ 80.5 µg/mL) | –
CN1CCC(NC(=O)OCC#Cc2cc(F)c(OCc3nnc(SC4C=CCCC4)n3-c3cccnc3)cc2F)CC1 (centres undefined) | 3 | – | 850 | – | – | solubility [5]: 71 µM (≈ 42.2 µg/mL); inhibition [6]: 133%
COCCSc1nnc(COc2ccc(-c3ccc(S(C)(=O)=O)cc3)c(C)c2)n1-c1cccnc1 | 13 | 2010 | – | > 40000 | 260 (≈ 133 µg/mL) | –
CCC(=O)NCC#Cc1ccc(OCc2nnc(SC3C=CCCC3)n2-c2cccnc2)cc1C (centres undefined) | – | 32 | – | 1900 | – | –
Cc1cc(OCc2nnc(SC3C=CCCC3)n2-c2cccnc2)ccc1-c1ccc(S(C)(=O)=O)cc1 (centres undefined) | < 10 | 34 | – | 940 | 140 (≈ 74.6 µg/mL) | –
CN1CCC(NC(=O)OCC#Cc2cc(F)c(OCc3nnc(S[C@@H]4C=CCCC4)n3-c3cccnc3)cc2F)CC1 | – | – | 4740 | – | – | –
CN1CCC(NC(=O)OCC#Cc2c(F)cc(OCc3nnc(SC4C=CCCC4)n3-c3cccnc3)cc2F)CC1 (centres undefined) | – | 11 | 730 | 360 | – | inhibition [6]: 123%
Cc1cc(OCc2nnc(SC3CCCCC3)n2-c2cccnc2)ccc1-c1ccc(S(C)(=O)=O)cc1 | 8 | 60 | – | 2400 | 170 (≈ 90.9 µg/mL) | –
[2H]C1([2H])C([2H])([2H])C([2H])([2H])C([2H])(Sc2nnc(COc3ccc(-c4ccc(S(C)(=O)=O)cc4)c(C)c3)n2-c2cccnc2)C1([2H])[2H] | 6 | – | – | – | 29 (≈ 15.4 µg/mL) | –
CN1CCN(CCNC(=O)OCC#Cc2ccc(OCc3nnc(SC4C=CCCC4)n3-c3cccnc3)cc2F)CC1 (centres undefined) | 4 | – | 1350 | 820 | – | solubility [5]: 60 µM (≈ 36.3 µg/mL)
Cc1cc(OCc2nnc(SC3C=CCCC3)n2-c2cccnc2)ccc1C#CCOC(=O)NC1CCN(C)CC1 (centres undefined) | 7 | 23 | 2100 | 820 | 61 (≈ 34.9 µg/mL) | solubility [5]: 61 µM (≈ 34.9 µg/mL)
Cc1cc(OCc2nnc(SC3C=CCCC3)n2-c2cccnc2)ccc1C#CCNC1CCN(C)CC1 (centres undefined) | 8 | 41 | – | 1500 | 130 (≈ 68.7 µg/mL) | –
Cc1cc(OCc2nnc(SC3CCCC=C3F)n2-c2cccnc2)ccc1-c1ccc(S(C)(=O)=O)cc1 (centres undefined) | 13 | 320 | – | > 40000 | 9 (≈ 4.96 µg/mL) | –
[2H]C1([2H])C([2H])([2H])C([2H])([2H])C([2H])(Sc2nnc(COc3cc(F)c(C#CCOC(=O)NC4CCN(C)CC4)cc3F)n2-c2cccnc2)C1([2H])[2H] | 8 | 9.7 | 1370 | 640 | – | solubility [5]: 83 µM (≈ 49.1 µg/mL)
Cc1cc(OCc2nnc(SC3C=CCCC3)n2-c2cccnc2)ccc1C#CCN (centres undefined) | 24 | – | – | 4500 | 53 (≈ 22.9 µg/mL) | –
Cc1cc(OCc2nnc(SC3CCNCC3)n2-c2cccnc2)ccc1-c1ccc(S(C)(=O)=O)cc1 | > 60 | > 6000 | – | > 40000 | 370 (≈ 198 µg/mL) | –
CN1CCC(NC(=O)OCC#Cc2ccc(OCc3nnc(SC4C=CCCC4)n3-c3cccnc3)c(F)c2F)CC1 (centres undefined) | 8 | – | 3200 | 1300 | – | solubility [5]: 54 µM (≈ 32.1 µg/mL)
Cc1cc(OCc2nnc(SC3C=CCCC3)n2-c2cccnc2)ccc1C#CCNC(=O)OC(C)(C)C (centres undefined) | 7 | 150 | – | 11000 | 92 (≈ 48.9 µg/mL) | –
Cc1cc(OCc2nnc(SC3C=CCCC3)n2-c2cccnc2)ccc1C#CCNC(C)C (centres undefined) | 8 | – | – | 2700 | – | –
Cc1cc(OCc2nnc(SC3C=CCCC3)n2-c2cccnc2)ccc1C#CCNS(C)(=O)=O (centres undefined) | 7 | – | – | 2700 | – | –
CN1CCC(NC(=O)OCC#Cc2cc(F)c(OCc3nnc(S[C@H]4C=CCCC4)n3-c3cccnc3)cc2F)CC1 | 5 | – | 340 | – | – | solubility [5]: 74 µM (≈ 44 µg/mL); clearance [7]: 234 mL/min/kg; Cmax [8]: 366 ng/mL; Cmax [9]: 12700 ng/mL; inhibition [10]: Active; AUC(0-t) at 24 h [11]: 371 ng·h/mL; inhibition [12]: Active; Vd [13]: 5.9 L/kg; AUC(0-t) at 24 h [14]: 9290 ng·h/mL; half-life [15]: 126 min; half-life [16]: 41.4 min; AUC(0-t) at 24 h [17]: 601 ng·h/mL; bioavailability [18]: 17%; half-life [19]: 96 min
Cc1cc(OCc2nnc(SC3C=CCCC3)n2-c2cccnc2)ccc1C#CCNS(=O)(=O)c1ccc(F)cc1 (centres undefined) | 9 | – | – | > 40000 | 24 (≈ 14.2 µg/mL) | –
Cc1cc(OCc2nnc(SC3C=CCCC3)n2-c2cccnc2)ccc1C#CCO (centres undefined) | 1.2 | 40 | 4700 | 1300 | 39 (≈ 16.9 µg/mL) | solubility [5]: 39 µM (≈ 16.9 µg/mL)
